Test results from patent US20170119020A1, “METHOD OF FEEDING AN ANIMAL” (CARGILL, INCORPORATED, priority 2014, published 2017).

Legend:
Assay type in all cases: in vivo, chicken
Ross 308 male broilers = assay: Grow out of offspring (Example 6); conditions: 160 versus 80 ppm in breeder diet
Ross 308 breeders = assay: Broiler breeder performance, weeks 30 through 39 of age (Example 4); conditions: breeder diet
From the text: All breeders received the same standard control diet during the pre-experimental period (19-30 weeks of age). […] In total there were 24 floor pens with 30 breeder females and 3 males (after allocation). The experimental period lasted 9 weeks; the breeders received a lay phase diet during the entire experimental period. Feed and water were restricted. Feed amount depended on body weight development. Water was provided for two hours a day, crops were checked regularly to ensure the correct amount of water was provided. [table]

[1] = tested on: egg yolk of Ross 308 breeders; assay: Egg yolk ORAC and vitamin E analysis (Example 4)
From the text: Eggs were shipped to University Gent, Belgium, for ORAC and vitamin E analysis on the yolk. The method used for the determination of polyphenols was the Folin-Ciocalteu Methodology which is described in the European Pharmacopoeia, using a spectrophotometry UV-visible. For the ORAC analysis the method was used as described by Ou et al. “Development and validation of an improved oxygen radical absorbance capacity assay using fluorescein as the fluorescent probe,” Journal of Agricultural and Food Chemistry 49: 4619-4626, (2001) and Huang et al. “High-throughput assay of oxygen radical absorbance capacity (ORAC) using a multichannel liquid handling system coupled with a microplate fluorescence reader in 96-well format,” Journal of Agricultural and Food Chemistry 50: 4437-4444, (2002).

[2] = tested on: Cobb 500FF breeder chickens; assay: Broiler breeder performance, partial replacement of vitamin E by PROVIOX 50 (Example 1)
Experimental: Two different breeder diets (Table 1) were tested in a randomized block design. Breeders received a standard control diet or a diet where 50% of the vitamin E was replaced by PROVIOX 50. The two diets were randomly distributed into six cages, resulting in three replicates per treatment with 28, 29, or 30 females and […] per replicate.
The experimental period lasted four weeks; the breeders received a lay start diet during the entire period according to the experimental design. Feed and water were restricted. Feed amount depended on body weight development. Water was provided for two hours a day, crops were checked regularly to ensure the correct amount of water was provided.
A total of 24 male and 173 female Cobb 500FF 20-week-breeder chickens were procured. The males and females were randomly assigned to six floor pens (four males per pen, 29 females in pens 1-3, 30 females in pen 4, and 28 females in pens 5 and 6). During the pre-trial period, all breeders received the control diet.
Throughout the trial, breeders were housed in broiler breeder floor pens ([…]) on litter (flax). Each pen was equipped with two bell drinkers adjustable in height. The feed for the females was supplied via two feeder bowls on the raised slatted floor. The feed for the males was supplied via a feeder trough on the other side of the pen.
Day length was set at 14 hours a day until peak production was reached (70%; day 15). After peak production was achieved, day length was set to 15 hours a day. Temperature and ventilation were computer controlled. The temperature was set at 20° C. for the entire experimental period.
Individual bird weights were recorded weekly from the start of the experiment. Feed amount provided was recorded on a daily basis. Egg production and egg quality data were recorded on a daily basis. Laying % was calculated as number of eggs produced per pen divided by the number of bird days of the experimental period. Egg mass production per pen per week was calculated as laying % (including second-class eggs) times average egg weight of the pen. Average egg weight was determined per pen once a week. Second-class eggs were divided into dirty eggs, broken eggs, shell-less eggs, double-yolk eggs, floor eggs and remaining second-class eggs. Mortality was checked every day; dead animals were not replaced during the experimental period.

[3] = breeders 26 through 30 weeks of age

## Cc1c(C)c2c(c(C)c1O)CCC(C)(CCCC(C)CCCC(C)CCCC(C)C)O2 (racemic) [Vitamin E, DL-α-tocopherol]
Ross 308 male broilers
  feed to gain corrected for final bodyweight, worse for high versus low vitamin E treatment: 2.6%
  overall feed to gain, worse for high versus low vitamin E treatment: 1.4%
Ross 308 breeders; vitamin E equivalence 80 ppm
  Average daily gain 30-34 wk: 5.36 g
  Average daily gain 30-39 wk: 5.79 g
  Average daily gain 34-39 wk: 5.96 g
  Bodyweight 30 wks: 3.51 kg
  Bodyweight 39 wks: 3.88 kg
  Egg mass 30-34 wks: 52.4 g/h/d
  Egg mass 30-39 wks: 51.6 g/h/d
  Egg mass 34-39 wks: 50.9 g/h/d
  Egg weight 30-34 wks: 60.1 g
  Egg weight 30-39 wks: 61.2 g
  Egg weight 34-39 wks: 62.4 g
  First Class Eggs 30-34 wks: 80.2%
  First Class Eggs 30-39 wks: 77.0%
  First Class Eggs 34-39 wks: 73.8%
  Laying in percentage 30-34 wks: 87.1%
  Laying in percentage 30-39 wks: 84.3%
  Laying in percentage 34-39 wks: 81.5%
  Second Choice Eggs: Broken Eggs 30-34 wks: 1.2%
  Second Choice Eggs: Broken Eggs 30-39 wks: 1.2%
  Second Choice Eggs: Broken Eggs 34-39 wks: 1.2%
  Second Choice Eggs: Dirty Eggs 30-34 wks: 1.4%
  Second Choice Eggs: Dirty Eggs 30-39 wks: 1.7%
  Second Choice Eggs: Dirty Eggs 34-39 wks: 1.9%
  Second Choice Eggs: Double yolk Eggs 30-34 wks: 1.3%
  Second Choice Eggs: Double yolk Eggs 30-39 wks: 0.9%
  Second Choice Eggs: Double yolk Eggs 34-39 wks: 0.4%
  Second Choice Eggs: Floor eggs, 30-34 wks: 2.3%
  Second Choice Eggs: Floor eggs, 30-39 wks: 2.8%
  Second Choice Eggs: Floor eggs, 34-39 wks: 3.4%
  Second Choice Eggs: Remainder 30-34 wks: 0.5%
  Second Choice Eggs: Remainder 30-39 wks: 0.6%
  Second Choice Eggs: Remainder 34-39 wks: 0.8%
  Second Choice Eggs: Shell less Eggs 30-34 wks: 0.2%
  Second Choice Eggs: Shell less Eggs 30-39 wks: 0.1%
  Second Choice Eggs: Shell less Eggs 34-39 wks: 0.0%
Ross 308 breeders; vitamin E equivalence 160 ppm
  Average daily gain 30-34 wk: 5.65 g
  Average daily gain 30-39 wk: 5.60 g
  Average daily gain 34-39 wk: 5.40 g
  Bodyweight 30 wks: 3.48 kg
  Bodyweight 39 wks: 3.83 kg
  Egg mass 30-34 wks: 52.5 g/h/d
  Egg mass 30-39 wks: 52.4 g/h/d
  Egg mass 34-39 wks: 52.2 g/h/d
  Egg weight 30-34 wks: 60.3 g
  Egg weight 30-39 wks: 61.6 g
  Egg weight 34-39 wks: 62.9 g
  First Class Eggs 30-34 wks: 78.6%
  First Class Eggs 30-39 wks: 76.5%
  First Class Eggs 34-39 wks: 74.4%
  Laying in percentage 30-34 wks: 87.0%
  Laying in percentage 30-39 wks: 85.0%
  Laying in percentage 34-39 wks: 83.0%
  Second Choice Eggs: Broken Eggs 30-34 wks: 1.2%
  Second Choice Eggs: Broken Eggs 30-39 wks: 1.3%
  Second Choice Eggs: Broken Eggs 34-39 wks: 1.5%
  Second Choice Eggs: Dirty Eggs 30-34 wks: 1.8%
  Second Choice Eggs: Dirty Eggs 30-39 wks: 1.8%
  Second Choice Eggs: Dirty Eggs 34-39 wks: 1.7%
  Second Choice Eggs: Double yolk Eggs 30-34 wks: 1.1%
  Second Choice Eggs: Double yolk Eggs 30-39 wks: 0.8%
  Second Choice Eggs: Double yolk Eggs 34-39 wks: 0.5%
  Second Choice Eggs: Floor eggs, 30-34 wks: 3.3%
  Second Choice Eggs: Floor eggs, 30-39 wks: 3.7%
  Second Choice Eggs: Floor eggs, 34-39 wks: 4.1%
  Second Choice Eggs: Remainder 30-34 wks: 0.8%
  Second Choice Eggs: Remainder 30-39 wks: 0.7%
  Second Choice Eggs: Remainder 34-39 wks: 0.6%
  Second Choice Eggs: Shell less Eggs 30-34 wks: 0.3%
  Second Choice Eggs: Shell less Eggs 30-39 wks: 0.2%
  Second Choice Eggs: Shell less Eggs 34-39 wks: 0.2%
[1]; in vivo
  proportionality index for transfer of vitamin E from the diet to the egg: around 50%
[1]; vitamin E equivalence 80 ppm
  ORAC of egg yolk: 33.8 µmol TE/g
  Vitamin E of egg yolk: 139.7 µg […]tocoferol/g
[1]; vitamin E equivalence 160 ppm
  ORAC of egg yolk: 33.5 µmol TE/g
  Vitamin E of egg yolk: 231.6 µg […]tocoferol/g
[2]; [3]
  Egg Mass: 47.1 g/hen/day
  Egg Weight: 56.4 g
  First Class Eggs: 77.9%
  Second Choice Eggs: Broken Eggs: 1.6%
  Second Choice Eggs: Dirty Eggs: 0.7%
  Second Choice Eggs: Double Yolk Eggs: 1.3%
  Second Choice Eggs: Floor Eggs: 1.4%
  Second Choice Eggs: Remainder: 0.5%
  Second Choice Eggs: Shell Less Eggs: 0.1%
[2]; breeders 26 through 30 weeks of age, half of vitamin E replaced by PROVIOX 50
  Laying Percentage: 83.6%
[2]; in vivo
  BW 30 wk Females: 3.68 kg
  BW 30 wk Males: 4.19 kg
[2]; start of experiment
  BW 26 wk Females: 3.50 kg
  BW 26 wk Males: 3.91 kg
